In the assay the test system is human FXN. Kind of assay: EC50 assay: FXN mRNA expression by qRT-PCR in GM15850 cells after 48 hrs compound treatment. Format: cell-based. The conditions noted are these: Homo sapiens, 48 hrs incubation, hFXN expression normalized to hGAPDH (qRT-PCR), read-out: EC50 WT (nM, 48 hr). The protocol:
Cell culture: Cells were cultured in RPMI1640 medium+15% FBS. Cells were maintained at a density between 2e5/mL and 1e6/mL. Cells were centrifuged, resuspended in fresh medium, counted and plated at 150,000 cells per well in 100 uL in a non-coated, flat bottom tissue culture plate.
Compound treatment: 10 mM stock solution of FA GeneTAC was diluted 1:10 in DMSO followed by a 1:100 dilution in growth medium. Working solution was then further diluted to 10× desired final concentration of 150 nM. Compound was then diluted at a 1:3 ratio into growth medium containing 0.01% DMSO. 5-point, 3-fold dose response curve was generated. 11 μL of 1OX compound was added to wells containing 100 μL cell suspension of GM15850. 11 μL growth medium containing 0.01% DMSO was added to all wells not treated with FA GeneTAC. Cells were allowed to incubate for 48 hrs prior to cell lysis using guanidine isothiocyanate solution.
RNA isolation: Total RNA was isolated and purified in 384-well column filter plates using chaotropic salt.
qRT-PCR: qRT-PCR reactions were assembled using AgPath-ID reagents (Thermo Fisher) using 6 uL mastermix and 4 μL RNA. qRT-PCR TaqMan primer probe sets against human FXN (Assay ID Hs01075496_m1) and human GAPDH (Assay ID Hs00266705_g1) were used to measure the intended targets. qRT-PCR was run on the ThermoFisher QuantStudio 6 PRO instrument using the manufacturer's recommended cycling conditions.
Data analysis: qPCR data was analyzed using Thermo Fisher Design and Analysis software. Data was exported to Excel and hFXN expression was normalized to hGAPDH expression
A<100 nM; B is 100 nM to 500 nM; C>500 nM.
For orientation: In qPCR the cycle at which signal appears reflects the starting amount.

In general, EC50 refers to the concentration needed to bring the measured effect to its halfway point. On to `Cc1sc2c(c1C)C(c1ccc(Cl)cc1)=N[C@@H](CC(=O)N1CCC(CN3CCN(CCOCCOCCOCCOCCOCCOCCNC(=O)CCNC(=O)c4nc(NC(=O)CCNC(=O)C5=CC(NC(=O)c6nc(NC(=O)CCNC(=O)c7cc(NC(=O)c8nccn8C)cn7C)cn6C)CN5C)cn4C)CC3)CC1)c1nnc(C)n1-2` (stereo partly drawn) [Compound 57], for which the 50% effective concentration (EC50) is 100 to 500 nM.

In the case of `COCCOCCOCCOCCOCCOCCOCCOCCOCCOCCOCCOCCOCCOCCOCCOCCC(=O)N(CC#CC#Cc1ccc(NC(=O)C[C@@H]2N=C(c3ccc(Cl)cc3)c3c(sc(C)c3C)-n3c(C)nnc32)cc1)CCOCCOCCOCCOCCOCCNC(=O)CCNC(=O)c1nc(NC(=O)CCNC(=O)c2cc(NC(=O)c3nc(NC(=O)CCNC(=O)c4cc(NC(=O)c5nccn5C)cn4C)cn3C)cn2C)cn1C` [Compound 58], the EC50 lay within 100 to 500 nM.

Take `Cc1sc2c(c1C)C(c1ccc(Cl)cc1)=N[C@@H](CC(=O)N1CCC(C#CC#CC3CCN(CCOCCOCCOCCOCCNC(=O)CCNC(=O)c4nc(NC(=O)CCNC(=O)c5cc(NC(=O)c6nc(NC(=O)CCNC(=O)c7cc(NC(=O)c8nccn8C)cn7C)cn6C)cn5C)cn4C)CC3)CC1)c1nnc(C)n1-2` [Compound 60]: the EC50 is less than 100 nM.

Regarding `COc1ccc2c(c1)C(c1ccc(Cl)cc1)=N[C@@H](CC(=O)N1CCC(C#CC#CC3CCN(CCOCCOCCOCCOCCNC(=O)CCNC(=O)c4nc(NC(=O)CCNC(=O)c5cc(NC(=O)c6nc(NC(=O)CCNC(=O)c7cc(NC(=O)c8nccn8C)cn7C)cn6C)cn5C)cn4C)CC3)CC1)c1nnc(C)n1-2` [Compound 61], the concentration giving a half-maximal response (EC50) was less than 100 nM.

As to `Cc1sc2c(c1C)C(c1ccc(Cl)cc1)=N[C@@H](CC(=O)N1CC(N3CCN(CCOCCOCCOCCOCCOCCOCCNC(=O)CCNC(=O)c4nc(NC(=O)CCNC(=O)c5cc(NC(=O)c6nc(NC(=O)CCNC(=O)c7cc(NC(=O)c8nccn8C)cn7C)cn6C)cn5C)cn4C)CC3)C1)c1nnc(C)n1-2` [Compound 62], the concentration for a half-maximal effect (EC50) was in the range of 100 to 500 nM.

Regarding `Cc1sc2c(c1C)C(c1ccc(Cl)cc1)=N[C@@H](CC(=O)N1CCN(C3CN(CCOCCOCCOCCOCCOCCOCCNC(=O)CCNC(=O)c4nc(NC(=O)CCNC(=O)c5cc(NC(=O)c6nc(NC(=O)CCNC(=O)c7cc(NC(=O)c8nccn8C)cn7C)cn6C)cn5C)cn4C)C3)CC1)c1nnc(C)n1-2` [Compound 63], the EC50 lay in the range of 100 to 500 nM.

`Cc1sc2c(c1C)C(c1ccc(Cl)cc1)=N[C@@H](CC(=O)N1CCN(C3CCN(CCOCCOCCOCCOCCC(=O)NCCCN(CCCNC(=O)CCNC(=O)c4nc(NC(=O)CCNC(=O)c5cc(NC(=O)c6nc(NC(=O)CCNC(=O)c7cc(NC(=O)c8nccn8C)cn7C)cn6C)cn5C)cn4C)CC(F)(F)F)CC3)CC1)c1nnc(C)n1-2` [Compound 68]: the concentration giving a half-maximal response (EC50) was less than 100 nM.

For the compound `Cc1sc2c(c1C)C(c1ccc(Cl)cc1)=N[C@@H](CC(=O)N1CCC(N3CCN(CCOCCOCCOCCOCCC(=O)NCCCN(CCCNC(=O)CCNC(=O)c4nc(NC(=O)CCNC(=O)c5cc(NC(=O)c6nc(NC(=O)CCNC(=O)c7cc(NC(=O)c8nccn8C)cn7C)cn6C)cn5C)cn4C)CC(F)(F)F)CC3)CC1)c1nnc(C)n1-2` [Compound 69], the 50% effective concentration (EC50) is less than 100 nM.

`Cc1sc2c(c1C)C(c1ccc(Cl)cc1)=N[C@@H](CC(=O)NC1CCN(CCOCCOCCOCCOCCC(=O)NC3(C(=O)NCCOCCOCCOCCNC(=O)CCNC(=O)c4nc(NC(=O)CCNC(=O)c5cc(NC(=O)c6nc(NC(=O)CCNC(=O)c7cc(NC(=O)c8nccn8C)cn7C)cn6C)cn5C)cn4C)CCNCC3)CC1)c1nnc(C)n1-2` [Compound 70]: the concentration for a half-maximal effect (EC50) was in the range of 100 to 500 nM.

On to `Cc1sc2c(c1C)C(c1ccc(Cl)cc1)=N[C@@H](CC(=O)NC1CCN(CCOCCOCCOCCC(=O)NC3(C(=O)NCCOCCOCCOCCOCCNC(=O)CCNC(=O)c4nc(NC(=O)CCNC(=O)c5cc(NC(=O)c6nc(NC(=O)CCNC(=O)c7cc(NC(=O)c8nccn8C)cn7C)cn6C)cn5C)cn4C)CCNCC3)CC1)c1nnc(C)n1-2` [Compound 71], for which the EC50 is 100 to 500 nM.

As to `Cc1sc2c(c1C)C(c1ccc(Cl)cc1)=N[C@@H](CC(=O)NC1CCN(CCOCCOCCOCCC(=O)NC3(C(=O)NCCOCCOCCOCCOCCNC(=O)CCNC(=O)c4nc(NC(=O)CCNC(=O)c5cc(NC(=O)c6nc(NC(=O)CCNC(=O)c7cc(NC(=O)c8nccn8C)cn7C)cn6C)cn5C)cn4C)CCN(CC(F)(F)F)CC3)CC1)c1nnc(C)n1-2` [Compound 73], the concentration for a half-maximal effect (EC50) was in the range of 100 to 500 nM.

With `COCCOCCOCCOCCOCCOCCOCCOCCOCCOCCOCCOCCOCCOCCOCCOCCC(=O)N1CCC(NC(=O)CCOCCOCCOCCN2CCC(NC(=O)C[C@@H]3N=C(c4ccc(Cl)cc4)c4c(sc(C)c4C)-n4c(C)nnc43)CC2)(C(=O)NCCOCCOCCOCCOCCNC(=O)CCNC(=O)c2nc(NC(=O)CCNC(=O)c3cc(NC(=O)c4nc(NC(=O)CCNC(=O)c5cc(NC(=O)c6nccn6C)cn5C)cn4C)cn3C)cn2C)CC1` [Compound 74], the 50% effective concentration (EC50) is more than 500 nM.

For `COCCOCCOCCOCCOCCOCCOCCOCCOCCOCCOCCC(=O)N1CCC(NC(=O)CCOCCOCCOCCN2CCC(NC(=O)C[C@@H]3N=C(c4ccc(Cl)cc4)c4c(sc(C)c4C)-n4c(C)nnc43)CC2)(C(=O)NCCOCCOCCOCCOCCNC(=O)CCNC(=O)c2nc(NC(=O)CCNC(=O)c3cc(NC(=O)c4nc(NC(=O)CCNC(=O)c5cc(NC(=O)c6nccn6C)cn5C)cn4C)cn3C)cn2C)CC1` [Compound 76], the EC50 fell in the range of 100 to 500 nM.

For the compound `Cc1sc2c(c1C)C(c1ccc(Cl)cc1)=N[C@@H](CC(=O)N1CCC(C#CC#CCNCCOCCOCCOCCOCCOCCOCCNC(=O)CCNC(=O)c3nc(NC(=O)CCNC(=O)c4cc(NC(=O)c5nc(NC(=O)CCNC(=O)c6cc(NC(=O)c7nccn7C)cn6C)cn5C)cn4C)cn3C)CC1)c1nnc(C)n1-2` [Compound 78], the concentration for a half-maximal effect (EC50) was less than 100 nM.

For `Cc1sc2c(c1C)C(c1ccc(Cl)cc1)=N[C@@H](CC(=O)N1CCC(C#CC#CCNCCOCCOCCOCCOCCNC(=O)CCNC(=O)c3nc(NC(=O)CCNC(=O)c4cc(NC(=O)c5nc(NC(=O)CCNC(=O)c6cc(NC(=O)c7nccn7C)cn6C)cn5C)cn4C)cn3C)CC1)c1nnc(C)n1-2` [Compound 79], the EC50 was less than 100 nM.

`Cc1noc2c1-c1ccccc1C(c1ccc(Cl)cc1)=N[C@H]2CC(=O)Nc1ccc(C#CC#CCNC(=O)COCCOCCOCCOCCOCCNC(=O)CCNC(=O)c2nc(NC(=O)CCNC(=O)c3cc(NC(=O)c4nc(NC(=O)CCNC(=O)c5cc(NC(=O)c6nccn6C)cn5C)cn4C)cn3C)cn2C)cc1` [Compound 84]: the EC50 was more than 500 nM.

As for `Cc1sc2c(c1C)C(c1ccc(Cl)cc1)=N[C@@H](CC(=O)N[C@H]1CC[C@@H](N(C)CCOCCOCCOCCN3CCN(CCOCCOCCOCCNC(=O)CCNC(=O)c4nc(NC(=O)CCNC(=O)C5=CC(NC(=O)c6nc(NC(=O)CCNC(=O)c7cc(NC(=O)c8nccn8C)cn7C)cn6C)CN5C)cn4C)CC3)CC1)c1nnc(C)n1-2` (stereo partly drawn) [Compound 86], the concentration for a half-maximal effect (EC50) fell in the range of 100 to 500 nM.

Turning to `Cc1sc2c(c1C)C(c1ccc(Cl)cc1)=N[C@@H](CC(=O)N[C@H]1CC[C@@H](N(C)CCOCCOCCOCCOCCOCCOCCOCCOCCNC(=O)CCNC(=O)c3nc(NC(=O)CCNC(=O)c4cc(NC(=O)c5nc(NC(=O)CCNC(=O)c6cc(NC(=O)c7nccn7C)cn6C)cn5C)cn4C)cn3C)CC1)c1nnc(C)n1-2` [Compound 87], the EC50 was less than 100 nM.

`Cc1sc2c(c1C)C(c1ccc(Cl)cc1)=N[C@@H](CC(=O)NC1CCN(CCOCCOCCOCCOCCOCCOCCOCCOCCNC(=O)CCNC(=O)c3nc(NC(=O)CCNC(=O)c4cc(NC(=O)c5nc(NC(=O)CCNC(=O)c6cc(NC(=O)c7nccn7C)cn6C)cn5C)cn4C)cn3C)CC1)c1nnc(C)n1-2` [Compound 88]: the EC50 is less than 100 nM.

Consider `Cc1sc2c(c1C)C(c1ccc(Cl)cc1)=N[C@@H](CC(=O)NC1CCN(C3CN(CCOCCOCCOCCOCCOCCOCCOCCNC(=O)CCNC(=O)c4nc(NC(=O)CCNC(=O)c5cc(NC(=O)c6nc(NC(=O)CCNC(=O)c7cc(NC(=O)c8nccn8C)cn7C)cn6C)cn5C)cn4C)C3)CC1)c1nnc(C)n1-2` [Compound 89], for which the EC50 is less than 100 nM.

With `Cc1sc2c(c1C)C(c1ccc(Cl)cc1)=N[C@@H](CC(=O)NC1CCN(C3CCN(CCOCCOCCOCCOCCOCCOCCOCCNC(=O)CCNC(=O)c4nc(NC(=O)CCNC(=O)C5=CC(NC(=O)c6nc(NC(=O)CCNC(=O)c7cc(NC(=O)c8nccn8C)cn7C)cn6C)CN5C)cn4C)CC3)CC1)c1nnc(C)n1-2` (stereo partly drawn) [Compound 90], the concentration for a half-maximal effect (EC50) lay in the range of 100 to 500 nM.

Regarding `Cc1sc2c(c1C)C(c1ccc(Cl)cc1)=N[C@@H](CC(=O)NC1CCN(CCN3CCN(CCOCCOCCOCCOCCOCCOCCNC(=O)CCNC(=O)c4nc(NC(=O)CCNC(=O)c5cc(NC(=O)c6nc(NC(=O)CCNC(=O)c7cc(NC(=O)c8nccn8C)cn7C)cn6C)cn5C)cn4C)CC3)CC1)c1nnc(C)n1-2` [Compound 91], the 50% effective concentration (EC50) is less than 100 nM.

Take `Cc1sc2c(c1C)C(c1ccc(Cl)cc1)=N[C@@H](CC(=O)NC1CCN(CC#CC#CC3CCN(CCOCCOCCOCCOCCOCCNC(=O)CCNC(=O)c4nc(NC(=O)CCNC(=O)c5cc(NC(=O)c6nc(NC(=O)CCNC(=O)c7cc(NC(=O)c8nccn8C)cn7C)cn6C)cn5C)cn4C)CC3)CC1)c1nnc(C)n1-2` [Compound 92]: the EC50 is less than 100 nM.

On to `Cc1sc2c(c1C)C(c1ccc(Cl)cc1)=N[C@@H](CC(=O)NC1CCN(CCOCCOCCOCCOCCOCCOCCOCCN3CCN(C(=O)CCNC(=O)c4nc(NC(=O)CCNC(=O)c5nc(NC(=O)c6nc(NC(=O)CCNC(=O)c7cc(NC(=O)c8nccn8C)cn7C)cn6C)cn5C)cn4C)CC3)CC1)c1nnc(C)n1-2` [Compound 98], for which the EC50 fell in the range of 100 to 500 nM.
